Several values for one entry are separate records, joined by “and”; a condition that tells them apart may be missing. Equal values may be shown once.
Experiment: molar heat capacity at constant pressure
Conditions: 101.33 kPa, Vacuum adiabatic calorimetry

[Al+3].[Al+3].[Co+2].[O-2].[O-2].[O-2].[O-2] [aluminium cobalt oxide]
Conditions | molar heat capacity at constant pressure
4.72 K, Crystal 2 | 0.13 J/K/mol
5 K, Crystal 2 | 0.187 J/K/mol
5.71 K, Crystal 2 | 0.32 J/K/mol
6 K, Crystal 2 | 0.323 J/K/mol
6.45 K, Crystal 2 | 0.6 J/K/mol
6.71 K, Crystal 2 | 0.26 J/K/mol
6.88 K, Crystal 2 | 0.73 J/K/mol
7 K, Crystal 2 | 0.905 J/K/mol
7.21 K, Crystal 2 | 0.74 J/K/mol
7.25 K, Crystal 2 | 1.59 J/K/mol
7.46 K, Crystal 2 | 0.83 J/K/mol
7.65 K, Crystal 2 | 2.56 J/K/mol
7.66 K, Crystal 2 | 0.96 J/K/mol
7.81 K, Crystal 2 | 1.14 J/K/mol
7.85 K, Crystal 2 | 0.98 J/K/mol
7.94 K, Crystal 2 | 1.38 J/K/mol
8 K, Crystal 2 | 3.8 J/K/mol and 2.02 J/K/mol
8.05 K, Crystal 2 | 1.67 J/K/mol
8.17 K, Crystal 2 | 2 J/K/mol
8.29 K, Crystal 2 | 2.32 J/K/mol
8.32 K, Crystal 2 | 6.21 J/K/mol
8.47 K, Crystal 2 | 1.8 J/K/mol
8.62 K, Crystal 2 | 3.37 J/K/mol
8.66 K, Crystal 2 | 6.33 J/K/mol
8.71 K, Crystal 2 | 5.19 J/K/mol and 7.23 J/K/mol
8.98 K, Crystal 2 | 3.72 J/K/mol
9.28 K, Crystal 1 | 4.54 J/K/mol
9.32 K, Crystal 1 | 4.26 J/K/mol
9.33 K, Crystal 1 | 3.86 J/K/mol
9.95 K, Crystal 1 | 4.26 J/K/mol
10 K, Crystal 1 | 4.27 J/K/mol
10.45 K, Crystal 1 | 4.03 J/K/mol
10.5 K, Crystal 1 | 4.18 J/K/mol
10.76 K, Crystal 1 | 4.31 J/K/mol
11.38 K, Crystal 1 | 4.5 J/K/mol
11.87 K, Crystal 1 | 4.28 J/K/mol
12.04 K, Crystal 1 | 4.33 J/K/mol
12.41 K, Crystal 1 | 4.39 J/K/mol
12.96 K, Crystal 1 | 4.32 J/K/mol
13.36 K, Crystal 1 | 4.4 J/K/mol
13.69 K, Crystal 1 | 4.41 J/K/mol
13.73 K, Crystal 1 | 4.37 J/K/mol
14.57 K, Crystal 1 | 4.32 J/K/mol
14.84 K, Crystal 1 | 4.36 J/K/mol
15 K, Crystal 1 | 4.19 J/K/mol
15.02 K, Crystal 1 | 4.19 J/K/mol
15.35 K, Crystal 1 | 4.45 J/K/mol
16.08 K, Crystal 1 | 4.3 J/K/mol
16.27 K, Crystal 1 | 4.22 J/K/mol
16.99 K, Crystal 1 | 4.37 J/K/mol
17.59 K, Crystal 1 | 4.22 J/K/mol
17.64 K, Crystal 1 | 4.2 J/K/mol
18.61 K, Crystal 1 | 4.3 J/K/mol
18.8 K, Crystal 1 | 4.15 J/K/mol
19.9 K, Crystal 1 | 4.28 J/K/mol
20 K, Crystal 1 | 4.12 J/K/mol
20.2 K, Crystal 1 | 4.24 J/K/mol
20.34 K, Crystal 1 | 4.12 J/K/mol
20.92 K, Crystal 1 | 4.12 J/K/mol
21.76 K, Crystal 1 | 4.2 J/K/mol
21.88 K, Crystal 1 | 4.24 J/K/mol
22.65 K, Crystal 1 | 4.13 J/K/mol
23.29 K, Crystal 1 | 4.19 J/K/mol
24.79 K, Crystal 1 | 4.18 J/K/mol
24.8 K, Crystal 1 | 4.22 J/K/mol
25 K, Crystal 1 | 4.19 J/K/mol
26.22 K, Crystal 1 | 4.35 J/K/mol
26.96 K, Crystal 1 | 4.24 J/K/mol
27.5 K, Crystal 1 | 4.17 J/K/mol
28.68 K, Crystal 1 | 4.27 J/K/mol
29.17 K, Crystal 1 | 4.26 J/K/mol
29.76 K, Crystal 1 | 4.34 J/K/mol
30 K, Crystal 1 | 4.35 J/K/mol
31.39 K, Crystal 1 | 4.52 J/K/mol
31.42 K, Crystal 1 | 4.55 J/K/mol
33.59 K, Crystal 1 | 4.79 J/K/mol
34.14 K, Crystal 1 | 4.77 J/K/mol
35 K, Crystal 1 | 4.98 J/K/mol
35.82 K, Crystal 1 | 5.1 J/K/mol
36.43 K, Crystal 1 | 5.08 J/K/mol
38.1 K, Crystal 1 | 5.31 J/K/mol
38.48 K, Crystal 1 | 5.3 J/K/mol
40 K, Crystal 1 | 5.71 J/K/mol
40.31 K, Crystal 1 | 5.7 J/K/mol
40.44 K, Crystal 1 | 5.8 J/K/mol
42.02 K, Crystal 1 | 6.02 J/K/mol
42.79 K, Crystal 1 | 6.32 J/K/mol
43.71 K, Crystal 1 | 6.48 J/K/mol
45 K, Crystal 1 | 6.87 J/K/mol
45.17 K, Crystal 1 | 6.92 J/K/mol
45.43 K, Crystal 1 | 6.93 J/K/mol
47.17 K, Crystal 1 | 7.42 J/K/mol
47.58 K, Crystal 1 | 7.59 J/K/mol
48.91 K, Crystal 1 | 7.98 J/K/mol
50 K, Crystal 1 | 8.31 J/K/mol
50.03 K, Crystal 1 | 8.32 J/K/mol
50.67 K, Crystal 1 | 8.52 J/K/mol
52.44 K, Crystal 1 | 9.07 J/K/mol
52.51 K, Crystal 1 | 9.11 J/K/mol
54.22 K, Crystal 1 | 9.63 J/K/mol
55 K, Crystal 1 | 9.96 J/K/mol
55.03 K, Crystal 1 | 9.97 J/K/mol
56.02 K, Crystal 1 | 10.33 J/K/mol
57.57 K, Crystal 1 | 10.87 J/K/mol
57.82 K, Crystal 1 | 10.96 J/K/mol
59.64 K, Crystal 1 | 11.67 J/K/mol
60 K, Crystal 1 | 11.79 J/K/mol
60.15 K, Crystal 1 | 11.85 J/K/mol
61.46 K, Crystal 1 | 12.35 J/K/mol
62.75 K, Crystal 1 | 12.88 J/K/mol
63.3 K, Crystal 1 | 13.11 J/K/mol
65 K, Crystal 1 | 13.79 J/K/mol
65.14 K, Crystal 1 | 13.85 J/K/mol
65.38 K, Crystal 1 | 13.94 J/K/mol
66.99 K, Crystal 1 | 14.6 J/K/mol
68.03 K, Crystal 1 | 15.06 J/K/mol
68.85 K, Crystal 1 | 15.41 J/K/mol
70 K, Crystal 1 | 15.92 J/K/mol
70.7 K, Crystal 1 | 16.23 J/K/mol
70.71 K, Crystal 1 | 16.22 J/K/mol
72.59 K, Crystal 1 | 17.07 J/K/mol
73.39 K, Crystal 1 | 17.44 J/K/mol
74.46 K, Crystal 1 | 17.93 J/K/mol
75 K, Crystal 1 | 18.18 J/K/mol
76.1 K, Crystal 1 | 18.69 J/K/mol
76.35 K, Crystal 1 | 18.81 J/K/mol
78.23 K, Crystal 1 | 19.67 J/K/mol
78.83 K, Crystal 1 | 19.98 J/K/mol
80 K, Crystal 1 | 20.58 J/K/mol
80.13 K, Crystal 1 | 20.6 J/K/mol
81.57 K, Crystal 1 | 21.31 J/K/mol
82.03 K, Crystal 1 | 21.53 J/K/mol
83.93 K, Crystal 1 | 22.47 J/K/mol
84.33 K, Crystal 1 | 22.66 J/K/mol
85 K, Crystal 1 | 23 J/K/mol
85.84 K, Crystal 1 | 23.42 J/K/mol
86.76 K, Crystal 1 | 23.89 J/K/mol
87.1 K, Crystal 1 | 24.07 J/K/mol
87.75 K, Crystal 1 | 24.35 J/K/mol
89.66 K, Crystal 1 | 25.35 J/K/mol
89.88 K, Crystal 1 | 25.48 J/K/mol
90 K, Crystal 1 | 25.54 J/K/mol
90.38 K, Crystal 1 | 25.72 J/K/mol
91.58 K, Crystal 1 | 26.35 J/K/mol
92.68 K, Crystal 1 | 26.93 J/K/mol
93.5 K, Crystal 1 | 27.35 J/K/mol
94.03 K, Crystal 1 | 27.61 J/K/mol
95 K, Crystal 1 | 28.14 J/K/mol
95.42 K, Crystal 1 | 28.36 J/K/mol
95.49 K, Crystal 1 | 28.4 J/K/mol
97.35 K, Crystal 1 | 29.35 J/K/mol
97.7 K, Crystal 1 | 29.56 J/K/mol
98.31 K, Crystal 1 | 29.91 J/K/mol
99.28 K, Crystal 1 | 30.41 J/K/mol
100 K, Crystal 1 | 30.76 J/K/mol
101.14 K, Crystal 1 | 31.29 J/K/mol
101.4 K, Crystal 1 | 31.39 J/K/mol
105 K, Crystal 1 | 33.58 J/K/mol
105.11 K, Crystal 1 | 33.64 J/K/mol
108.84 K, Crystal 1 | 35.84 J/K/mol
110 K, Crystal 1 | 36.47 J/K/mol
112.59 K, Crystal 1 | 37.85 J/K/mol
116.35 K, Crystal 1 | 39.89 J/K/mol
118.19 K, Crystal 1 | 40.87 J/K/mol
120 K, Crystal 1 | 41.53 J/K/mol
120.13 K, Crystal 1 | 41.61 J/K/mol
121.04 K, Crystal 1 | 42.24 J/K/mol
123.91 K, Crystal 1 | 44.18 J/K/mol and 44.16 J/K/mol
126.79 K, Crystal 1 | 45.8 J/K/mol
127.71 K, Crystal 1 | 46.35 J/K/mol
129.67 K, Crystal 1 | 47.46 J/K/mol
130 K, Crystal 1 | 47.65 J/K/mol
131.52 K, Crystal 1 | 48.53 J/K/mol
132.55 K, Crystal 1 | 49.08 J/K/mol
135.33 K, Crystal 1 | 50.7 J/K/mol
135.44 K, Crystal 1 | 50.72 J/K/mol
138.34 K, Crystal 1 | 52.33 J/K/mol
139.16 K, Crystal 1 | 52.77 J/K/mol
140 K, Crystal 1 | 53.26 J/K/mol
141.23 K, Crystal 1 | 53.98 J/K/mol
142.99 K, Crystal 1 | 55.02 J/K/mol
144.14 K, Crystal 1 | 55.61 J/K/mol

Reference: the NIST ThermoML archive (doi:10.1016/j.jct.2009.01.014)
